PubChem BioAssay (NCI)
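Cultured in 96-well plates, cells were exposed to test compound for 48 hours across five concentrations. GI50 is the concentration that inhibits growth by half. The concentration for full growth arrest is given as TGI.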

Tests used:
Assay in all cases: inhibition of tumour cell growth, NCI panel, 48 h
SW-620 colon = test system: SW-620 colon
HL-60(TB) leukemia = test system: HL-60(TB) leukemia
RXF 393 renal = test system: RXF 393 renal
CAKI-1 renal = test system: CAKI-1 renal
OVCAR-3 ovarian = test system: OVCAR-3 ovarian
OVCAR-5 ovarian = test system: OVCAR-5 ovarian
NCI-H23 lung = test system: NCI-H23 lung
ACHN renal = test system: ACHN renal
HCC-2998 colon = test system: HCC-2998 colon
SNB-75 CNS = test system: SNB-75 CNS
SF-295 CNS = test system: SF-295 CNS
OVCAR-4 ovarian = test system: OVCAR-4 ovarian
MOLT-4 leukemia = test system: MOLT-4 leukemia
MALME-3M melanoma = test system: MALME-3M melanoma
NCI/ADR-RES ovarian = test system: NCI/ADR-RES ovarian
NCI-H522 lung = test system: NCI-H522 lung
SR leukemia = test system: SR leukemia
M14 melanoma = test system: M14 melanoma
NCI-H226 lung = test system: NCI-H226 lung
HOP-62 NSCLC = test system: HOP-62 NSCLC
SK-MEL-28 melanoma = test system: SK-MEL-28 melanoma
HOP-92 NSCLC = test system: HOP-92 NSCLC
IGROV1 ovarian = test system: IGROV1 ovarian
SF-268 CNS = test system: SF-268 CNS
UACC-257 melanoma = test system: UACC-257 melanoma
OVCAR-8 ovarian = test system: OVCAR-8 ovarian
A549 NSCLC = test system: A549 NSCLC
RPMI-8226 leukemia = test system: RPMI-8226 leukemia
U251 CNS = test system: U251 CNS
HT29 colon = test system: HT29 colon
NCI-H460 lung = test system: NCI-H460 lung
BT-549 breast = test system: BT-549 breast
UO-31 renal = test system: UO-31 renal
COLO 205 colon = test system: COLO 205 colon
MCF7 breast = test system: MCF7 breast
HCT-116 colon = test system: HCT-116 colon
SK-MEL-2 melanoma = test system: SK-MEL-2 melanoma
MDA-MB-231 breast = test system: MDA-MB-231 breast
DU-145 prostate = test system: DU-145 prostate
CCRF-CEM leukemia = test system: CCRF-CEM leukemia
LOX IMVI melanoma = test system: LOX IMVI melanoma
EKVX NSCLC = test system: EKVX NSCLC
786-0 renal = test system: 786-0 renal
PC-3 prostate = test system: PC-3 prostate
SN12C renal = test system: SN12C renal
KM12 colon = test system: KM12 colon
SK-OV-3 ovarian = test system: SK-OV-3 ovarian
K-562 leukemia = test system: K-562 leukemia
HS 578T breast = test system: HS 578T breast
A498 renal = test system: A498 renal
HCT-15 colon = test system: HCT-15 colon
TK-10 renal = test system: TK-10 renal
MDA-MB-435 = test system: MDA-MB-435
T-47D breast = test system: T-47D breast
SK-MEL-5 melanoma = test system: SK-MEL-5 melanoma
SNB-19 CNS = test system: SNB-19 CNS
SF-539 CNS = test system: SF-539 CNS
UACC-62 melanoma = test system: UACC-62 melanoma
MDA-N = test system: MDA-N

Structure (SMILES): COc1cccc(CCC(=O)c2cc3c(N)c(C(=O)Nc4cccc(Cl)c4C)sc3nc2C)c1
- GI50 (SW-620 colon): 469 nM
- TGI (SW-620 colon): > 100000 nM
- GI50 (HL-60(TB) leukemia): 543 nM
- TGI (HL-60(TB) leukemia): > 100000 nM
- GI50 (RXF 393 renal): 393 nM
- TGI (RXF 393 renal): 2950 nM
- GI50 (CAKI-1 renal): 535 nM
- TGI (CAKI-1 renal): > 100000 nM
- GI50 (OVCAR-3 ovarian): 370 nM
- TGI (OVCAR-3 ovarian): 2780 nM
- GI50 (OVCAR-5 ovarian): 2680 nM
- TGI (OVCAR-5 ovarian): > 100000 nM
- GI50 (NCI-H23 lung): 2350 nM
- TGI (NCI-H23 lung): > 100000 nM
- GI50 (ACHN renal): 743 nM
- TGI (ACHN renal): > 100000 nM
- GI50 (HCC-2998 colon): 2180 nM
- TGI (HCC-2998 colon): > 50800 nM
- GI50 (SNB-75 CNS): 193 nM
- TGI (SNB-75 CNS): 1540 nM
- GI50 (SF-295 CNS): 407 nM
- TGI (SF-295 CNS): 20100 nM
- GI50 (OVCAR-4 ovarian): 1560 nM
- TGI (OVCAR-4 ovarian): > 100000 nM
- GI50 (MOLT-4 leukemia): 770 nM
- TGI (MOLT-4 leukemia): > 100000 nM
- GI50 (MALME-3M melanoma): 469 nM
- TGI (MALME-3M melanoma): > 100000 nM
- GI50 (NCI/ADR-RES ovarian): 388 nM
- TGI (NCI/ADR-RES ovarian): 10400 nM
- GI50 (NCI-H522 lung): 368 nM
- GI50 (SR leukemia): 431 nM
- TGI (SR leukemia): > 100000 nM
- GI50 (M14 melanoma): 446 nM
- TGI (M14 melanoma): > 100000 nM
- GI50 (NCI-H226 lung): 1450 nM
- TGI (NCI-H226 lung): 32700 nM
- GI50 (HOP-62 NSCLC): 1100 nM
- TGI (HOP-62 NSCLC): > 100000 nM
- GI50 (SK-MEL-28 melanoma): 981 nM
- TGI (SK-MEL-28 melanoma): > 100000 nM
- GI50 (HOP-92 NSCLC): 753 nM
- TGI (HOP-92 NSCLC): > 100000 nM
- GI50 (IGROV1 ovarian): 628 nM
- TGI (IGROV1 ovarian): > 100000 nM
- GI50 (SF-268 CNS): 814 nM
- TGI (SF-268 CNS): > 100000 nM
- GI50 (UACC-257 melanoma): 4250 nM
- TGI (UACC-257 melanoma): > 100000 nM
- GI50 (OVCAR-8 ovarian): 1440 nM
- TGI (OVCAR-8 ovarian): > 100000 nM
- GI50 (A549 NSCLC): 687 nM
- TGI (A549 NSCLC): > 100000 nM
- GI50 (RPMI-8226 leukemia): 819 nM
- TGI (RPMI-8226 leukemia): > 100000 nM
- GI50 (U251 CNS): 445 nM
- TGI (U251 CNS): > 100000 nM
- GI50 (HT29 colon): 338 nM
- GI50 (NCI-H460 lung): 376 nM
- TGI (NCI-H460 lung): > 75200 nM
- GI50 (BT-549 breast): 951 nM
- TGI (BT-549 breast): 99600 nM
- GI50 (UO-31 renal): 860 nM
- TGI (UO-31 renal): > 100000 nM
- GI50 (COLO 205 colon): 661 nM
- TGI (COLO 205 colon): > 45900 nM
- GI50 (MCF7 breast): 336 nM
- TGI (MCF7 breast): > 100000 nM
- GI50 (HCT-116 colon): 448 nM
- TGI (HCT-116 colon): > 100000 nM
- GI50 (SK-MEL-2 melanoma): 1360 nM
- TGI (SK-MEL-2 melanoma): > 100000 nM
- GI50 (MDA-MB-231 breast): 1400 nM
- TGI (MDA-MB-231 breast): > 78600 nM
- GI50 (DU-145 prostate): 1910 nM
- TGI (DU-145 prostate): > 100000 nM
- GI50 (CCRF-CEM leukemia): 437 nM
- TGI (CCRF-CEM leukemia): > 100000 nM
- GI50 (LOX IMVI melanoma): 664 nM
- TGI (LOX IMVI melanoma): > 100000 nM
- GI50 (EKVX NSCLC): 998 nM
- TGI (EKVX NSCLC): > 100000 nM
- GI50 (786-0 renal): 530 nM
- TGI (786-0 renal): > 100000 nM
- GI50 (PC-3 prostate): 746 nM
- TGI (PC-3 prostate): > 100000 nM
- GI50 (SN12C renal): 667 nM
- TGI (SN12C renal): > 100000 nM
- GI50 (KM12 colon): 502 nM
- TGI (KM12 colon): > 100000 nM
- GI50 (SK-OV-3 ovarian): 1530 nM
- TGI (SK-OV-3 ovarian): > 75600 nM
- GI50 (K-562 leukemia): 396 nM
- TGI (K-562 leukemia): > 100000 nM
- GI50 (HS 578T breast): 343 nM
- GI50 (A498 renal): 248 nM
- TGI (A498 renal): 2470 nM
- GI50 (HCT-15 colon): 433 nM
- TGI (HCT-15 colon): > 100000 nM
- GI50 (TK-10 renal): 6460 nM
- TGI (TK-10 renal): > 100000 nM
- GI50 (MDA-MB-435): 197 nM
- TGI (MDA-MB-435): 612 nM
- GI50 (T-47D breast): 588 nM
- TGI (T-47D breast): > 100000 nM
- GI50 (SK-MEL-5 melanoma): 650 nM
- TGI (SK-MEL-5 melanoma): 11000 nM
- GI50 (SNB-19 CNS): 523 nM
- TGI (SNB-19 CNS): > 100000 nM
- GI50 (SF-539 CNS): 408 nM
- TGI (SF-539 CNS): 2780 nM
- GI50 (UACC-62 melanoma): 407 nM
- TGI (UACC-62 melanoma): > 100000 nM

Structure (SMILES): COc1ccc2[nH]c(C(=O)N3CC(CCl)c4c3cc(N)c3ccccc43)cc2c1 (stereo not given)
- TGI (SW-620 colon): 132 nM
- TGI (HL-60(TB) leukemia): < 10 nM
- TGI (CAKI-1 renal): < 10 nM
- TGI (OVCAR-3 ovarian): > 100000 nM
- TGI (OVCAR-5 ovarian): 315 nM
- TGI (NCI-H23 lung): < 10.9 nM
- TGI (HCC-2998 colon): < 10 nM
- TGI (SF-295 CNS): < 17.2 nM
- TGI (OVCAR-4 ovarian): < 10 nM
- TGI (MOLT-4 leukemia): < 15.3 nM
- TGI (NCI/ADR-RES ovarian): < 17.2 nM
- TGI (NCI-H226 lung): < 22.5 nM
- TGI (HOP-62 NSCLC): 35.8 nM
- TGI (IGROV1 ovarian): 18200 nM
- TGI (SF-268 CNS): < 10 nM
- TGI (OVCAR-8 ovarian): < 17.7 nM
- TGI (RPMI-8226 leukemia): 138 nM
- TGI (U251 CNS): 40.9 nM
- TGI (HT29 colon): 1100 nM
- TGI (BT-549 breast): < 26.1 nM
- TGI (UO-31 renal): < 16.4 nM
- TGI (COLO 205 colon): < 16.7 nM
- TGI (MCF7 breast): 35.3 nM
- TGI (HCT-116 colon): 1090 nM
- TGI (SK-MEL-2 melanoma): 28.5 nM
- TGI (DU-145 prostate): < 10 nM
- TGI (CCRF-CEM leukemia): 68.1 nM
- TGI (LOX IMVI melanoma): 22.3 nM
- TGI (EKVX NSCLC): 128 nM
- TGI (MDA-N): < 10 nM
- TGI (PC-3 prostate): 44.7 nM
- TGI (SN12C renal): < 18.3 nM
- TGI (KM12 colon): 263 nM
- TGI (SK-OV-3 ovarian): 964 nM
- TGI (K-562 leukemia): > 100000 nM
- TGI (A498 renal): 39.9 nM
- TGI (HCT-15 colon): 1150 nM
- TGI (TK-10 renal): 11400 nM
- TGI (T-47D breast): < 28.1 nM
- TGI (SK-MEL-5 melanoma): < 11.2 nM
- TGI (SNB-19 CNS): < 38.6 nM
- TGI (UACC-62 melanoma): < 11.6 nM
